Literature values as cited in US12551486B2, “Rivaroxaban formulation” (Shanghai Auson Pharmaceuticals Co., Ltd., priority 2021, dated 2026).

Question: With O=C(NC[C@H]1CN(c2ccc(N3CCOCC3=O)cc2)C(=O)O1)c1ccc(Cl)s1 [Rivaroxaban, 5-chloro-N-[[(5S)-2-oxo-3-[4-(3-oxomorpholin-4-yl)phenyl]-1,3-oxazolidin-5-yl]methyl]thiophene-2-carboxamide] as the compound, how does the Solubility in water read?
Answer: insoluble in water
